# Experiments:
# Type in all cases: cell-based, H. contortus
# αβ (1:50) GluClRs = αβ (1:50) GluClRs (Haemonchus contortus, UniProt O46124+P91730); test: Two-electrode voltage clamp in oocytes, αβ (1:50) GluClRs
# Protocol: (§1) cDNAs encoding the α (avr-14b) (pcDNA 3.1+) or β (pUNIV) GluClR subunits of H. contortus were nuclear injected into oocytes (NASCO, WI USA) or transfected into HEK293AD cells (CellBank Australia) using a calcium phosphate-DNA co-precipitate method. Synapse formation between neurons and HEK293 cells was promoted by co-transfecting neuroligin 2A or 1B and the cDNA encoding CD4 surface antigen was also added to the transfection mixture so as to identify transfected cells. The oocytes and HEK cells were used for experiments 2–3 days after the introduction of the cDNAs. All experiments were done at room temperature (22 ± 1°C).
# (§2) Xenopus laevis oocytes were harvested by surgical incision. The oocytes were then defolliculated with 1.5 mg/ml collagenase for 2 hours. Free oocytes were rinsed with calcium-free OR-2 solution containing (in mM) 82.5 NaCl, 2 KCl, 1 MgCl2, 5 HEPES, pH 7.4 and mature stage V or VI oocytes were isolated for experiments. The DNAs coding for α and β subunits were nuclear injected into the oocytes using a Nanoliter 2000 microinjector (WPI Inc) at a ratio of (α:β), 1:0, 0:1, 1:1 and 1:50. The total amount of injected DNA in all combinations was 400 ng ml^−1, including the 1:50 (α:β) combination (8 ng of DNA encoding the α and 392 ng of DNA encoding β subunits). Injected oocytes were incubated in ND96 storage solution (in mM) 96 NaCl, 2 KCl, 1 MgCl2.6H2O, 1.8 CaCl2, 5 HEPES, 50 μg ml^−1 gentamicin, 2.5 sodium pyruvate, 0.5 theophylline, pH 7.4 at 16°C for 2–3 days before experiment.
# (§3) For the two-electrode voltage clamp recordings, each oocyte was secured in a cell bath that was continually perfused with ND96 recording solution (ND96 storage solution without pyruvate, theophylline and gentamicin). […] The two microelectrodes contained 3 M KCl and had resistances of 0.2–2 MΩ. Recordings were done using Clampex 10.2 software (Molecular Devices) at a clamped voltage of −40 mV. Currents were low-pass filtered at 200 Hz, sampled at 2 kHz using a Gene Clamp 500B amplifier and digitised by a Digidata 1440A interface. The IVM (IVM B1a) concentration-response experiments were standardised by using an application protocol that consisted of applying increasing concentrations of IVM for, respectively, 3 min, 3 min, 3 min, 2 min, 1 min, 1 min and 0.5 min.
# (§4) Group data were analysed in SigmaPlot 13.0 using one-way ANOVAs, where p < 0.05 was taken as the significance threshold and expressed as mean ± SEM. Tests for normally distributed data are built into the SigmaPlot software. Confocal images were captured and analysed with Zen 2012 SP2 (Zeiss) software. Oocyte concentration-response data were fit to a Hill equation to obtain an EC50 and Hill co-efficient for each oocyte recording. These parameters were then averaged across multiple oocyte experiments of the same type. Single channel recordings were analysed in QuB software. […] The selected critical times eliminated periods of receptor desensitisation while retaining singe receptor active periods. Mean active period duration and intra-activation open probability was estimated from each patch. Group means were obtained by averaging across multiple patches for each recording condition.
# α (avr-14b) GluClRs = α (avr-14b) GluClRs (Haemonchus contortus, UniProt O46124); test: Two-electrode voltage clamp in oocytes, α GluClRs
# Protocol: as §1, §2, §3, §4
# αβ (1:1) GluClRs = αβ (1:1) GluClRs (Haemonchus contortus, UniProt O46124+P91730); test: IPSC recording in HEK293-neuron heteroculture, αβ (1:1) GluClRs; settings: 5 nM IVM
# Protocol: as §1
# Primary neuronal cultures were prepared from cortices of E18 rat embryos, (University of Queensland Biological Services), which were triturated and plated at 100,000 cells per 18-mm poly-D-lysine-coated coverslip in DMEM with 10% fetal bovine serum. After 24 h the entire medium was replaced with Neurobasal medium that included 2% B27 and 1% GlutaMAX supplements. After one week half of this medium was replaced and the neurons were allowed to grow in vitro for 3–5 weeks before introducing the transfected HEK293 cells. Recordings of synaptic currents were done in whole-cell configuration at ‐70 mV using an Axopatch 200B amplifier (Molecular Devices), filtered at 5 kHz and digitized at 20 kHz using Clampex (pClamp 10 suite, Molecular Devices) via a Digidata 1440A digitizer.
# αβ (1:1) GluClRs, sequence (P91730 19-432): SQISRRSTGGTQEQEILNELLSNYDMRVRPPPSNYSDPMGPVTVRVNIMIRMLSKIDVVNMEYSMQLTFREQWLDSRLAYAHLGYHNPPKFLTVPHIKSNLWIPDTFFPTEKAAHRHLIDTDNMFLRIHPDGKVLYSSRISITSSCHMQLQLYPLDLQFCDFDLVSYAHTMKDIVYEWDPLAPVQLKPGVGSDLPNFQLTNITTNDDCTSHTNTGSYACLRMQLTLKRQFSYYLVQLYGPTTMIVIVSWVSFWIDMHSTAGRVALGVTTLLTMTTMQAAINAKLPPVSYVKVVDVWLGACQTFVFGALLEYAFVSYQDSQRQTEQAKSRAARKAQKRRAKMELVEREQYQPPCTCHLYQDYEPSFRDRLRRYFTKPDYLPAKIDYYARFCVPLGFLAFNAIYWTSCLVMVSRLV
# αβ (1:1) GluClRs, sequence (O46124 entry or part of it): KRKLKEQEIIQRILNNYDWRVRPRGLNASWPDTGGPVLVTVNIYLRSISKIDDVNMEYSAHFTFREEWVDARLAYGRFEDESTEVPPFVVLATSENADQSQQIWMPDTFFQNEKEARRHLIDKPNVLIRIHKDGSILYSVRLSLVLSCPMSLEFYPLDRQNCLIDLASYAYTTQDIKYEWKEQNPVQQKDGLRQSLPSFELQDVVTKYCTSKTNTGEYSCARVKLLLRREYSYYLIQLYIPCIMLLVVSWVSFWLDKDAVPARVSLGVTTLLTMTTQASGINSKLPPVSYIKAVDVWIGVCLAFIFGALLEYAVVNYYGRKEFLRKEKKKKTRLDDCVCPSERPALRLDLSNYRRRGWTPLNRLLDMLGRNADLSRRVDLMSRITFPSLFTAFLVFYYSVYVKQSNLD
# αβ (1:50) GluClRs, sequence (O46124 entry or part of it): as above
# αβ (1:50) GluClRs, sequence (P91730 19-432): as the sequence (P91730 19-432) above
# α (avr-14b) GluClRs, sequence (O46124 entry or part of it): as the sequence (O46124 entry or part of it) above
smiles,measurement,setting,value
"CC[C@H](C)[C@H]1O[C@]2(CC[C@@H]1C)C[C@@H]1C[C@@H](C/C=C(\C)[C@@H](O[C@H]3C[C@H](OC)[C@@H](O[C@H]4C[C@H](OC)[C@@H](O)[C@H](C)O4)[C@H](C)O3)[C@@H](C)/C=C/C=C3\CO[C@@H]4[C@H](O)C(C)=C[C@@H](C(=O)O1)[C@]34O)O2 [IVM, Ivermectin]",differential efficacy between α and αβ (1:50) GluClRs,"αβ (1:50) GluClRs; 30 nM, α versus αβ (1:50)",maintained
same,EC50,"αβ (1:50) GluClRs; EC50, oocytes, cDNA injection ratio α:β 1:50, −40 mV",141 ± 11 nM
same,Hill co-efficient,"αβ (1:50) GluClRs; oocytes, α:β 1:50, −40 mV",1.6 ± 0.1
same,Emax,"αβ (1:50) GluClRs; read-out: maximal response, % of saturating glutamate response",33%
same,EC50,"α (avr-14b) GluClRs; EC50, oocytes, holding potential −40 mV",22 ± 3 nM
same,Hill co-efficient,"α (avr-14b) GluClRs; oocytes, −40 mV",1.9 ± 0.1
same,Emax,"α (avr-14b) GluClRs; read-out: maximal response, % of that seen with saturating glutamate",59%
same,IPSC activation (10–90% rise) time,αβ (1:1) GluClRs; 15 minutes,10 ± 1 ms
same,peak IPSC amplitude,αβ (1:1) GluClRs; 15 minutes,124 ± 18 pA
same,IPSC decay time constant,"αβ (1:1) GluClRs; 15 minutes after start of application, −70 mV",72 ± 4 ms

# — PMC6368337, “GluClR-mediated inhibitory postsynaptic currents reveal targets for ivermectin and potential mechanisms of ivermectin resistance” (PLoS Pathogens, 2019)
